# Tests used:
# [1] = biological target: Glutamate receptor ionotropic, NMDA 1 (Rattus norvegicus) (UniProt P35439); assay: Percentage inhibition of [3H]glycine to NMDA receptors of rat cortical membranes at 32 uM; assay type: cell membranes; details: Membrane
# [2] = biological target: Glutamate receptor ionotropic, AMPA (Rattus norvegicus) (UniProt P19491+P19492+P19493+P19490); assay: Percent inhibition of [3H]CP-526427 binding to Ionotropic glutamate receptor AMPA in rat forebrain membranes at 32 uM; assay type: cell membranes; details: Membrane
# Rattus norvegicus = organism: Rattus norvegicus; assay: Inhibition of KA-induced increase in [Ca2+]i in rat cerebellar granule neurons; assay type: functional
# [3] = biological target: T1, Glutamate receptor ionotropic, AMPA (Rattus norvegicus, UniProt P19490+P19491+P19492+P19493); assay: Ability to displace [3H]CP-526427 from the AMPA receptor binding site in rat forebrain membranes; assay type: cell membranes, Membrane
# [4] = biological target: Glutamate receptor ionotropic, NMDA 1 (Rattus norvegicus, UniProt P35439); assay: Inhibition of specific binding of [3H]glycine to NMDA receptors, in rat cortical membranes at 32 uM conc.; assay type: cell membranes, Membrane
# [5] = biological target: T1, Glutamate receptor ionotropic, AMPA; assay: Ability to displace [3H]CP-526427 from the Ionotropic glutamate receptor AMPA binding site in rat forebrain membranes; assay type: cell membranes, Brain, Membrane
# Mus musculus [6] = organism: Mus musculus; assay: Anticonvulsant activity against audiogenic seizures in DBA/2 mice measured in tonic phase; assay type: functional
# Mus musculus [7] = organism: Mus musculus; assay: Anticonvulsant activity against audiogenic seizures in DBA/2 mice measured in clonic phase; assay type: functional
SMILES,inhibition [1],inhibition [2],IC50 (Rattus norvegicus),IC50 [3],IC50 [4],IC50 [5],ED50 (Mus musculus [6]),ED50 (Mus musculus [7])
CNC(=O)NC(=O)Cc1cc2c(cc1C(=O)c1ccc(N)cc1)OCO2,11%,3%,–,–,–,–,–,–
NS(=O)(=O)c1cccc2c1c([N+](=O)[O-])cc1nc(O)c(O)nc12,3%,–,–,–,–,–,–,–
CC1=NN=C(c2ccc(N)cc2)c2cc3c(cc2C1)OCO3 [GYKI-52466],18%,–,22 µM,12.6 µM,–,–,–,–
CCCCNC(=O)n1nc(-c2ccc(N)cc2)c2cc3c(cc2c1=O)OCO3,13%,0%,> 100 µM,–,–,–,–,–
Nc1ccc(-c2nnc(O)c3cc4c(cc23)OCO4)cc1,12%,13%,> 100 µM,–,–,–,–,–
CNC(=O)NC(=O)Cc1cc2c(cc1Cc1ccc(N)cc1)OCO2,0%,0%,–,–,–,–,–,–
O=C(O)c1cc(O)c2c(Cl)cc(Cl)cc2n1,–,–,–,–,0.09 µM,–,–,–
Nc1ccc(C2=NNC(=O)Cc3cc4c(cc32)OCO4)cc1,0%,74%,13 µM,–,–,32 µM,–,–
Nc1ccc(C2NNC(=O)Cc3cc4c(cc32)OCO4)cc1 (centres undefined),9%,10%,> 100 µM,–,–,–,6.47 µmol/kg,–
CNC(=O)N1N=C(c2ccc(N)cc2)c2cc3c(cc2CC1=O)OCO3,0%,59%,11 µM,–,–,12 µM,–,–
CNC(=O)N1NC(c2ccc(N)cc2)c2cc3c(cc2CC1=O)OCO3 (centres undefined),12%,0%,> 100 µM,–,–,–,12.4 µmol/kg,14.7 µmol/kg
CCCCNC(=O)N1NC(c2ccc(N)cc2)c2cc3c(cc2CC1=O)OCO3 (centres undefined),13%,0%,> 100 µM,–,–,–,32.7 µmol/kg,39.2 µmol/kg
Nc1cccc(C2=NNC(=O)Cc3cc4c(cc32)OCO4)c1,0%,31%,> 320 µM,–,–,> 320 µM,–,–
CNC(=O)N/N=C(\c1ccc(N)cc1)c1cc2c(cc1CC(=O)OC)OCO2,2%,16%,–,–,–,–,–,7.87 µmol/kg
